Experimental data from patent US20170304280A1, “SYNERGISTIC COMBINATIONS STIMULATING THE EXPRESSION OF SIRTUIN 1” (priority 2014, published 2017).

Test system: SIRT 1
Assay: Western blot analysis of the expression of SIRT 1 in HeLa cells
Format: cell-based, Human
Settings: for % 3 h increase (SIRT 1 expression compared to control) / % 6 h increase (SIRT 1 expression compared to control) / % 24 h increase (SIRT 1 expression compared to control): HeLa cells; for increase of SIRT 1 expression relative to the other groups: Table 1, especially with respect to resveratrol, reference standard
Experimental: The synergistic effects of co-administration of two substances on SIRT 1 stimulation, determined as a greater, statistically significant effect than the sum of the effects of the two substances individually administered, were evaluated in cell cultures by repeating the experiment at least 8 times for each single combination, either after a stimulation time of 3, 6 and 24 hours (more than 300 total trials), as described in the following detailed description.
Human Cervical Carcinoma cells (HeLa) were cultured in DMEM supplemented with 10% (v/v) fetal bovine serum, 1% antibiotics (penicillin and streptomycin) and 1% L-glutamine at 37° C. in a humidified air atmosphere with 5% (v/v) CO2.
The cells were grown to a confluence of 80%, were then trypsinized, counted with a Burker chamber and plated (100,000 cells /well). The day of the experiment, the cells were treated with the substances at the different concentrations and left in incubation for 3, 6 and 24 hours. The substances were solubilized in DMSO, used at concentrations not toxic for cells (v/v<0.5%).
At the end of the incubation periods, the cells were washed with PBS (pH 7.4) and collected in a 1.5 ml microtube with 0.130 ml of lysis buffer (RIPA buffer) containing a protease inhibitor cocktail, a phosphatase inhibitor cocktail, PMSF, sodium orthovanadate and sodium pyrophosphate.
They were lysed by three freezing-thawing cycles and then the supernatant were recovered.
A part of the lysate was used to quantified the protein content with the spectrophotometer (Thermo Scientific Multiskan FC, Thermo Scientific), using a commercial kit based on the Bradford assay. The final concentrations are expressed in μg/μl.
The cell lysates (25 μg/μl) were combined with the appropriate amount of 1× SDS sample buffer (0.5 M Tris-HCl pH 6.8, 20% SDS, 10% [vol/vol] glycerol, 5% [vol/vol] β-mercaptoethanol, 0.2% bromophenol blue), heated at 95° C. for 5 min, separated by SDS-PAGE and then transferred to polyvinylidene difluoride membranes (PVDF).
For the electrophoretic separation was used a polyacrylamide gel, composed of two parts, a lower one called “Running gel”, containing acrylamide (acrylic acid amide) to 12% (acrylamide/bis-acrylamide 30%), in which occurs the separation of the proteins, and an upper one, called loading gel or “Stacking gel”, containing acrylamide to 10%, where were built the wells for sample loading.
The electrophoretic run was performed by passing a current at 200V for about 1 hour, or until when the front has not reached the bottom of the gel.
Once running, the proteins were transferred from the gel to a […] membrane (PVDF).
The transfer was performed by passing a voltage of 100V for 1 hour.
The membranes were blocked with 5% (wt/vol) nonfat dry milk in Tris-buffered saline with Tween buffer (T-TBS) (20 mmol/1 Tris-Hcl, pH 7.6, 0.138 mol/l NaCl, and 0.1% Tween 20) for 1 hour under stirring and at room temperature.
The expression of SIRT 1 was analyzed incubating the membranes in the presence of specific primary antibodies and, subsequently, of secondary peroxidase-conjugated antibodies, suitable diluted in 5% BSA in T-TBS. Primary Antibodies were used overnight at 4° C. at the following conditions: anti-SIRT 1, rabbit (1:1000) and anti-β-actine, mouse (1:1000). Secondary antibodies were instead used at this dilution: goat anti-rabbit (1:10000) for SIRT 1 and for β-actin.
During this phase the primary antibody binds to species-specific secondary antibody conjugated to a peroxidase enzyme that will bind, in the next step, a specific substrate (luminol) for the reaction of chemiluminescence.
Later, were performed a series of washes with TBS-Tween under stirring, in order to remove all the unbound secondary antibody.
Bound antibodies were visualized using Chemiluminescence Luminata Crescendo Western HRP Substrate and bands were detected and analyzed by the Kodak Image Station 440CF (Eastman Kodak, Rochester, N.Y., USA).

| Compound | % 3 h increase (SIRT 1 expression compared to control) (5 μM) | % 6 h increase (SIRT 1 expression compared to control) (5 μM) | % 24 h increase (SIRT 1 expression compared to control) (5 μM) | % 3 h increase (SIRT 1 expression compared to control) (10 μM) | % 6 h increase (SIRT 1 expression compared to control) (10 μM) | % 24 h increase (SIRT 1 expression compared to control) (10 μM) | % 3 h increase (SIRT 1 expression compared to control) (20 μM) | % 6 h increase (SIRT 1 expression compared to control) (20 μM) | % 24 h increase (SIRT 1 expression compared to control) (20 μM) | increase of SIRT 1 expression relative to the other groups | % 3 h increase (SIRT 1 expression compared to control) (25 μM) | % 6 h increase (SIRT 1 expression compared to control) (25 μM) | % 24 h increase (SIRT 1 expression compared to control) (25 μM) | % 3 h increase (SIRT 1 expression compared to control) (50 μM) | % 6 h increase (SIRT 1 expression compared to control) (50 μM) | % 24 h increase (SIRT 1 expression compared to control) (50 μM) |
| --- | --- | --- | --- | --- | --- | --- | --- | --- | --- | --- | --- | --- | --- | --- | --- | --- |
| Oc1ccc(C=Cc2cc(O)cc(O)c2)cc1 [Resveratrol, reference compound] | 46% | 47% | 68% | 47% | 48% | 69% | – | – | – | – | – | – | – | – | – | – |
| OCCc1ccc(O)cc1 [Tyrosol] | – | – | – | 53% | 62% | 68% | 76% | 93% | 101% | greater increase than the other groups | – | – | – | – | – | – |
| O.O.O=c1c(O)c(-c2ccc(O)c(O)c2)oc2cc(O)cc(O)c12 [Quercetin, Quercetin Dihydrate] | 21% | 22% | 29% | 27% | 27% | 54% | – | – | – | – | – | – | – | – | – | – |
| COc1ccc2cc3[n+](cc2c1OC)CCc1cc2c(cc1-3)OCO2 [Berberine, Berberine Chloride Hydrate] | 63% | 65% | 75% | 65% | 64% | 75% | – | – | – | greater increase than the other groups | – | – | – | – | – | – |
| COc1cc(/C=C/C(=O)O)ccc1O [Ferulic Acid] | – | – | – | – | – | – | – | – | – | greater increase than the other groups | 43% | 44% | 66% | 57% | 58% | 75% |
| (+)-Catechin | 44% | 44% | 46% | 54% | 54% | 57% | – | – | – | greater increase than the other groups | – | – | – | – | – | – |
